Results as given in patent US6653316B1, “Substituted polycyclic aryl and heteroaryl pyrimidinones useful for selective inhibition of the coagulation cascade” (Pharmacia Corporation, priority 1999, dated 2003).

Tests used:
Type in all cases: biochemical
[1] = target: T1, human factor Xa (Homo sapiens, UniProt P00742); test: Xa Assay (chromogenic substrate S-2765 hydrolysis, OD 405 nm)
T1 construct: purchased Enzyme Research Laboratories, South Bend Ind
Procedure: 0.3 nM human factor Xa and 0.15 mM N-α-Benzyloxycarbonyl-D-arginyl-L-glycyl-L-arginine-p-nitroaniline-dihydrochloride (S-2765) are added to a 96-well assay plate containing either inhibitor or buffer (50 mM Tris-HCl, pH 8.0, 100 mM NaCl, 0.1% BSA). The reaction. in a final volume of 100 ul is measured immediately at 405 nm to determine background absorbance. The plate is incubated at room temperature for 60 min, at which time the rate of hydrolysis of the substrate is measured by monitoring the reaction at 405 nm for the release of p-nitroaniline. Percent inhibition of Xa activity is calculated from OD405 nm value from the experimental and control sample.
(§1) Recombinant soluble TF, consisting of amino acids 1-219 of the mature protein sequence was expressed in E. coli and purified using a Mono Q Sepharose FPLC. Recombinant human VIIa was purchased from American Diagnostica, Greenwich Conn. and chromogenic substrate N-Methylsulfonyl-D-phe-gly-arg-p-nitroaniline was prepared by American Peptide Company, Inc., Sunnyvale, Calif. Factor Xa was obtained from Enzyme Research Laboratories, South Bend Ind., thrombin from Calbiochem, La Jolla, Calif., and trypsin and L-BAPNA from Sigma, St. Louis Mo. The chromogenic substrates S-2765 and S-2238 were purchased from Chromogenix, Sweden.

[2] = target: human thrombin (Homo sapiens, UniProt P00734); test: Thrombin Assay (chromogenic substrate hydrolysis, OD 405 nm); conditions: for inhibition at 100 µM / inhibition at 30 µM: read-out: IC50 or % Inhibition Thrombin II (30 μM): % inhibition; for IC50: cells without % sign, 60 min at room temperature, read-out: IC50 or % Inhibition Thrombin II (30 μM): IC50
Procedure: 0.28 nM human thrombin and 0.06 mM H-D-Phenylalanyl-L-pipecolyl-L-arginine-p-nitroaniline dihydrochloride are added to a 96-well assay plate containing either inhibitor or buffer (50 mM Tris-HCl, pH 8.0. 100 mM NaCl, 0.1% BSA). The reaction, in a final volume of 100 ul is measured immediately at 405 nm to determine background absorbance. The plate is incubated at room temperature for 60 min, at which time the rate of hydrolysis of the substrate is measured by monitoring the reaction at 405 nm for the release of p-nitroaniline. Percent inhibition of thrombin activity is calculated from OD405 nm value from the experimental and control sample.
as §1

[3] = target: T2, trypsin, type IX from porcine pancreas (Sus scrofa, UniProt P00761); test: Trypsin Assay (L-BAPNA hydrolysis, OD 405 nm); conditions: cells without % sign; 60 min at room temperature; read-out: IC50 or % Inhibition Trpysin II (30 μM): IC50
T2 construct: purchased Sigma, St. Louis Mo. type IX; host or cells: porcine pancreas
T2 sequence (P00761 9-231): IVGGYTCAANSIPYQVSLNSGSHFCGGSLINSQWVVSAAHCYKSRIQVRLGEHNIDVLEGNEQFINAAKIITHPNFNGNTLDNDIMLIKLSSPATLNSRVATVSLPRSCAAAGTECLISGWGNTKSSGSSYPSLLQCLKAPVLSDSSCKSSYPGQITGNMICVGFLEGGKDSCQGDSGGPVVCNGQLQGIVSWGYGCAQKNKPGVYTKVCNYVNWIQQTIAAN
Procedure: 5 ug/ml trypsin, type IX from porcine pancreas and 0.375 mM N-α-Benzoyl-L-arginine-p-nitroanilide (L-BAPNA) are added to a 96-well assay plate containing either inhibitor or buffer (50 mM Tris-HCl, pH 8.0, 100 mM NaCl, 0.1% BSA). The reactions, in a final volume of 100 ul are measured immediately at 405 nm to determine background absorbance. The plate is incubated at room temperature for 60 min, at which time the rate of hydrolysis of the substrate is measured by monitoring the reaction at 405 nm for the release of p-nitroaniline. Percent inhibition of trypsin activity is calculated from OD405 nm value from the experimental and control sample.
as §1

[4] = target: T3, recombinant soluble tissue factor and recombinant human factor VIIa (TF-VIIa) (Homo sapiens, UniProt P08709); test: TF-VIIa Assay (chromogenic substrate hydrolysis, OD 405 nm); conditions: cells without % sign; 60 min at room temperature; read-out: IC50 or % Inhibition TF-VIIa (30 μM): IC50
T3 construct: conversion of coagulation factor VII to VIIa by Xa; host or cells: E. coli (soluble TF)
T3 sequence (P08709 213-466 limits assumed): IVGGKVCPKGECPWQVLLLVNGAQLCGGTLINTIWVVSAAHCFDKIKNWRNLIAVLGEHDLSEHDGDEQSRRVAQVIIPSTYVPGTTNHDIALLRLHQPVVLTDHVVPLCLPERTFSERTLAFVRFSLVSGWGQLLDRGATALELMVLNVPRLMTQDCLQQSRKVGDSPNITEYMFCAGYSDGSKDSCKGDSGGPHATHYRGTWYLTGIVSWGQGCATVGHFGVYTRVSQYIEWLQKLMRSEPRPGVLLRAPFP
T3 sequence (P08709 61-212 limits assumed): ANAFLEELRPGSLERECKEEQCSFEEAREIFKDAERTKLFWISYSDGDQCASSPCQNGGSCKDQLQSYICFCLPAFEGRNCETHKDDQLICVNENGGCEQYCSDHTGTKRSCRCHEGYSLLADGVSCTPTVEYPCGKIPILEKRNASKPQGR
T3 sequence (P13726 33-251 partner limits assumed): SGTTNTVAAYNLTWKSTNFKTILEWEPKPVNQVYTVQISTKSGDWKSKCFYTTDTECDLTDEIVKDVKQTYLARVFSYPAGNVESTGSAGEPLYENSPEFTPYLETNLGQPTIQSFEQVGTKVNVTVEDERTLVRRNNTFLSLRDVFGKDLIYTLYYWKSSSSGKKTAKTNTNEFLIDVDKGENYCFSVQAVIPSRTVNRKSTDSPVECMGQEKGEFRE
Procedure: In this assay 100 nM recombinant soluble tissue factor and 2 nM recombinant human factor VIIa are added to a 96-well assay plate containing 0.4 mM of the substrate, N-Methylsulfonyl-D-phe-gly-arg-p-nitroaniline and either inhibitor or buffer (5 mM CaCl2,50 mM Tris-HCl, pH 8.0, 100 mM NaCl, 0.1% BSA). The reaction, in a final volume of 100 ul is measured immediately at 405 nm to determine background absorbance. The plate is incubated at room temperature for 60 min, at which time the rate of hydrolysis of the substrate is measured by monitoring the reaction at 405 nm for the release of p-nitroaniline. Percent inhibition of TF-VIIa activity is calculated from OD405 nm value from the experimental and control sample.
as §1

[5] = read-out: IC50 or % Inhibition Factor Xa (30 μM): % inhibition

T1 sequence (P00742 235-488 limits assumed): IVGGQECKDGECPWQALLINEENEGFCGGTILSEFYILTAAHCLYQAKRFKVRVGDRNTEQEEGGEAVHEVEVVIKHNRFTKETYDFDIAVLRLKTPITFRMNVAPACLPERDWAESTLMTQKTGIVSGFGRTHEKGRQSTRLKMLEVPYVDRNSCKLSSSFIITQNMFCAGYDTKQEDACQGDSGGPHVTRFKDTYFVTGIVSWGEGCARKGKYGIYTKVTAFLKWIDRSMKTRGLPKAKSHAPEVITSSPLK
T1 sequence (P00742 41-179 limits assumed): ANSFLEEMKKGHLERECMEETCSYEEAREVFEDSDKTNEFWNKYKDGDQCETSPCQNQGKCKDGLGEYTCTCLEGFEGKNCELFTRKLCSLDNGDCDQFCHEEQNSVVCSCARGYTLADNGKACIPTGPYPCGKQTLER

SMILES | inhibition at 100 µM ([1]; @100 μM, read-out: IC50 or % Inhibition Factor Xa (30 μM): % inhibition) | inhibition at 100 µM [2] | IC50 [3] | IC50 [4] | inhibition at 30 µM [1, 5] | inhibition at 30 µM [2] | IC50 [2] | IC50 ([1]; cells without % sign, 60 min at room temperature, read-out: IC50 or % Inhibition Factor Xa (30 μM): IC50)
CC(C)Nc1cnc(-c2cc(N)cc(C(=O)O)c2)n(CC(=O)NCc2ccc(C(=N)N)cc2)c1=O [Example 21] | 15% | 26% | 50 nM | 70 nM | – | – | – | –
N=C(N)c1ccc(CNC(=O)Cn2c(-c3cccc(N)c3)ncc(NC3CCC3)c2=O)cc1 [Example 8] | – | – | 40 nM | 80 nM | 15% | 42% | – | –
N=C(N)c1ccc(CNC(=O)Cn2c(-c3ccccc3)ncc(NCCc3ccccc3)c2=O)cc1 [Example 3] | – | – | 600 nM | 1000 nM | – | – | – | –
N=C(N)c1cccc(CNC(=O)Cn2c(-c3ccccc3)ncc(NS(=O)(=O)Cc3ccccc3)c2=O)c1 [Example 2] | – | – | – | – | – | – | > 30000 nM | –
CC(C)Nc1cnc(-c2cccnc2)n(CC(=O)NCc2ccc(C(=N)N)cc2)c1=O [Example 7] | – | – | 40 nM | 700 nM | 33% | – | 11300 nM | –
CC(C)Nc1cnc(-c2cccc(N)c2)n(CC(=O)NCc2ccc(C(=N)N)cc2)c1=O [Example 6] | – | – | < 40 nM | 50 nM | 33% | 43% | – | –
N=C(N)c1ccc(CNC(=O)Cn2c(-c3ccccc3)ncc(NS(=O)(=O)Cc3ccccc3)c2=O)cc1 [Example 1] | – | – | 500 nM | 15400 nM | – | – | 22400 nM | –
COC(=O)c1cc(N)cc(-c2ncc(NC(C)C)c(=O)n2CC(=O)NCc2ccc(C(=N)N)cc2)c1 [Example 20] | – | 41% | 30 nM | 80 nM | – | – | – | 85000 nM
